As usually defined, the IC50 is the concentration needed to halve the response being measured.

SMILES strings stand for the structures.

The subject of assay [1] is E. cloacae P99. Briefly: MIC of compound alone, broth microdilution. The class given is cell-based. The settings on record: strain P99; compound alone. Put shortly:
(§1)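 Growth inhibition was scored by eye after 16-20 h at 35° C (room air), with bacteria from log phase seeded at 5×10^5 cfu/mL final in cation-adjusted Mueller-Hinton medium.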
Background: Broth dilution looks for growth in wells or tubes with falling amounts of substance.

In assay [2] the test system is E. coli 190317. Put plainly: MIC of compound alone, broth microdilution. The assay is classed as cell-based. The conditions noted are these: strain 190317; compound alone. Put shortly: as §1
Assay [3] deals with K. pneumoniae 6299. Briefly: MIC of compound alone, broth microdilution. The class given is cell-based. The settings on record: strain 6299; compound alone. Put shortly:
as §1

For assay [4], the system named is K. pneumoniae BAA-1898. Briefly: MIC of compound alone, broth microdilution. The assay is classed as cell-based. The conditions noted are these: strain BAA-1898; compound alone. Put shortly: as §1
Assay [5] deals with P. aeruginosa CIP107051. Put plainly: MIC of compound alone, broth microdilution. The class given is cell-based. The conditions noted are these: strain CIP107051; compound alone. Put shortly:
as §1

Assay [6] concerns E. cloacae P99. Put plainly: MIC of ceftazidime (CAZ) at fixed concentration of compound (synergy), broth microdilution. The assay is classed as cell-based. The settings on record: strain P99; MIC of CAZ, compound fixed at 4 μg/mL. The method, then: (§2) Log phase bacterial suspensions were adjusted to a final density of 5×10^5 cfu/mL in cation-adjusted Mueller-Hinton broth (Becton-Dickinson) and added to each well (98 μL). Microplates were incubated for 16-20 h at 35° C. in ambient air. The MIC of the compounds was defined as the lowest concentration of said compounds that prevented bacterial growth as read by visual inspection.

Assay [7] has as its system E. coli 190317. The assay is described as above. The class given is cell-based. The conditions noted are these: strain 190317; MIC of CAZ, compound fixed at 4 μg/mL. How it is done:
as §2

In assay [8] the test system is K. pneumoniae 6299. Described as above. The assay is classed as cell-based. The conditions noted are these: strain 6299; MIC of CAZ, compound fixed at 4 μg/mL. How it is done:
as §2

In assay [9] the test system is K. pneumoniae BAA-1898. The assay is described as above. The class given is cell-based. The conditions noted are these: strain BAA-1898; MIC of CAZ, compound fixed at 4 μg/mL. How it is done: as §2
The subject of assay [10] is P. aeruginosa CIP107051. Described as above. The settings on record: strain CIP107051; MIC of CAZ, compound fixed at 4 μg/mL. The assay is classed as cell-based. The method, then:
as §2

The target in another assay is AmpC (P99) (Enterobacter cloacae, UniProt P05364). The settings on record: read-out: IC50 β-lactamase AmpC (P99); class (C); nitrocefin 200 μM, 30-min pre-incubation, enzyme 0.2 nM.
Another assay addresses CMY-37 (Citrobacter freundii, UniProt P05193). The settings on record: read-out: IC50 β-lactamase CMY-37; class (C); nitrocefin 200 μM, 30-min pre-incubation, enzyme 0.2 nM.
For another assay, the target named is AmpC (PAE) (Pseudomonas aeruginosa, UniProt P24735). The settings on record: read-out: IC50 β-lactamase AmpC (PAE); class (C); nitrocefin 200 μM, 30-min pre-incubation, enzyme 0.4 nM.
Another assay has as its target OXA-15 (Pseudomonas aeruginosa, UniProt Q51574). The conditions noted are these: read-out: IC50 β-lactamase OXA-15; class (D); nitrocefin 200 μM, 30-min pre-incubation, enzyme 0.4 nM.
The target of another assay is TEM-1 (Escherichia coli, UniProt P62593). The settings on record: read-out: IC50 β-lactamase TEM-1; class (A); nitrocefin 200 μM, 30-min pre-incubation, enzyme 0.1 nM.
The next assay concerns the target SHV-1 (Klebsiella pneumoniae, UniProt P0AD64). The conditions noted are these: read-out: IC50 β-lactamase SHV-1; class (A); nitrocefin 200 μM, 30-min pre-incubation, enzyme 0.075 nM.
A further assay concerns the target CTX-M-15 (Escherichia coli, UniProt Q9EXV5). The settings on record: read-out: IC50 β-lactamase CTX-M-15; class (A); nitrocefin 200 μM, 30-min pre-incubation, enzyme 0.4 nM.
A further assay has as its target KPC-2 (Klebsiella pneumoniae, UniProt Q9F663). The conditions noted are these: read-out: IC50 β-lactamase KPC-2; class (A); nitrocefin 200 μM, 30-min pre-incubation, enzyme 1 nM.
In a further assay the target is OXA-1 (Escherichia coli, UniProt P13661). The settings on record: read-out: IC50 β-lactamase OXA-1; class (D); nitrocefin 200 μM, 30-min pre-incubation, enzyme 0.2 nM.
The next assay deals with OXA-11 (Pseudomonas aeruginosa, UniProt Q06778). The conditions noted are these: read-out: IC50 β-lactamase OXA-11; class (D); nitrocefin 200 μM, 30-min pre-incubation, enzyme 1.2 nM.
Another assay concerns the target OXA-48 (Klebsiella pneumoniae, UniProt Q6XEC0). The conditions noted are these: read-out: IC50 β-lactamase OXA-48; class (D); nitrocefin 200 μM, 30-min pre-incubation, enzyme 0.3 nM.

For `NCc1cnn(C2=CC3CN(C2)C(=O)N3OS(=O)(=O)[O-])c1.O=C(O)C(F)(F)F.[Na+]` (stereo not drawn) [Example 15, sodium and 2,2,2-trifluoroacetate [3-(4-methyleneammoniumpyrazol-1-yl)-7-oxo-1,6-diazabicyclo[3.2.1]oct-3-en-6-yl]sulfate], the “MIC compounds of the invention alone” value with E. cloacae P99 [1] is 8 mg/L; in the assay on E. coli 190317 [2] it was 2 mg/L; in the assay with K. pneumoniae 6299 [3] it was over 32 mg/L; in the assay on K. pneumoniae BAA-1898 [4] it was over 32 mg/L; in the assay with P. aeruginosa CIP107051 [5] it was 16 mg/L. For the same compound, the “MIC combination of CAZ and compounds of the invention at 4 μg/mL” value (“MIC combination” for short) is at most 0.25 mg/L in the assay on E. cloacae P99 [6]; under 0.25 mg/L in the assay with E. coli 190317 [7]; 0.25 mg/L in the assay on K. pneumoniae 6299 [8]; at most 0.25 mg/L in the assay on K. pneumoniae BAA-1898 [9]; 2 mg/L in the assay on P. aeruginosa CIP107051 [10]. Besides, the concentration for half-maximal inhibition (IC50) at AmpC (P99) came to 0.08 µM; on CMY-37 it was 0.076 µM; on AmpC (PAE), 0.36 µM; at OXA-15, 0.049 µM; on TEM-1, 0.00079 µM; at SHV-1, 0.0065 µM. For the same compound, the IC50 on CTX-M-15 worked out at 0.0015 µM; on KPC-2, 0.12 µM; on OXA-1, 0.7 µM; on OXA-11 it was 0.27 µM; at OXA-48, 0.018 µM.

For the compound `N#Cc1ccn(C2=CC3CN(C2)C(=O)N3OS(=O)(=O)[O-])n1.[Na+]` (stereo not drawn) [Example 17, sodium [3-(3-carbonitrilepyrazol-1-yl)-7-oxo-1,6-diazabicyclo[3.2.1]oct-3-en-6-yl]sulfate], the “MIC compounds of the invention alone” value is 16 mg/L in the assay on E. cloacae P99 [1]; 4 mg/L in the assay on E. coli 190317 [2]; over 32 mg/L with K. pneumoniae 6299 [3]; 16 mg/L in the assay on K. pneumoniae BAA-1898 [4]; over 32 mg/L in the assay on P. aeruginosa CIP107051 [5]. The “MIC combination” value in the assay with E. cloacae P99 [6] is 1 mg/L; in the assay on E. coli 190317 [7], under 0.25 mg/L; in the assay on K. pneumoniae 6299 [8] it was 0.25 mg/L; in the assay with K. pneumoniae BAA-1898 [9], 0.25 mg/L; in the assay with P. aeruginosa CIP107051 [10], 8 mg/L. Besides, the IC50 is 0.03 µM on AmpC (P99); 0.087 µM on CMY-37; 0.28 µM on AmpC (PAE); 0.03 µM at OXA-15; 0.00023 µM on TEM-1; 0.001 µM at SHV-1. In addition, the IC50 on CTX-M-15 came out at 0.00076 µM; on KPC-2, 0.0037 µM; at OXA-1, 0.1 µM; on OXA-11, 0.063 µM; at OXA-48, 0.0058 µM.

For `O=C1N2CC(n3cc(N4CCOCC4)cn3)=CC(C2)N1OS(=O)(=O)[O-].[Na+]` (stereo not drawn) [Example 20], the “MIC compounds of the invention alone” value with E. cloacae P99 [1], in the assay with E. coli 190317 [2], with K. pneumoniae 6299 [3], in the assay with K. pneumoniae BAA-1898 [4] and in the assay on P. aeruginosa CIP107051 [5] was over 32 mg/L each time. Moreover, the “MIC combination” value in the assay with E. cloacae P99 [6] was over 128 mg/L; in the assay with E. coli 190317 [7], 128 mg/L; in the assay with K. pneumoniae 6299 [8], over 128 mg/L; in the assay on K. pneumoniae BAA-1898 [9] it was over 128 mg/L; with P. aeruginosa CIP107051 [10], over 128 mg/L. Further, the half-maximal inhibitory concentration (IC50) at AmpC (P99) was 0.23 µM; on CMY-37, 0.14 µM; at AmpC (PAE), 0.91 µM; at OXA-15 it was 0.14 µM; at TEM-1, 0.0013 µM; at SHV-1 it was 0.0051 µM. Moreover, the IC50 at CTX-M-15 was found to be 0.003 µM; on KPC-2, 0.12 µM; at OXA-1, 6.2 µM; on OXA-11, 7.1 µM; at OXA-48 it was 0.068 µM.

On to `CC(=O)Nc1cnn(C2=CC3CN(C2)C(=O)N3OS(=O)(=O)[O-])c1.[Na+]` (stereo not drawn) [Example 21, sodium [3-(4-acetamidepyrazol-1-yl)-7-oxo-1,6-diazabicyclo[3.2.1]oct-3-en-6-yl]sulfate], for which the “MIC compounds of the invention alone” value in the assay on E. cloacae P99 [1] was over 32 mg/L; in the assay with E. coli 190317 [2], 16 mg/L; with K. pneumoniae 6299 [3], over 32 mg/L; with K. pneumoniae BAA-1898 [4], over 32 mg/L; in the assay on P. aeruginosa CIP107051 [5] it was over 32 mg/L. Further, the “MIC combination” value in the assay with E. cloacae P99 [6] was 16 mg/L; with E. coli 190317 [7], 0.25 mg/L; in the assay on K. pneumoniae 6299 [8] it was 4 mg/L; in the assay with K. pneumoniae BAA-1898 [9], 64 mg/L; in the assay with P. aeruginosa CIP107051 [10], 4 mg/L. For the same compound, the concentration for half-maximal inhibition (IC50) on AmpC (P99) was 0.23 µM; at CMY-37 it was 0.099 µM; on AmpC (PAE), 0.32 µM; on OXA-15, 0.29 µM; at TEM-1 it was 0.0061 µM; on SHV-1 it was 0.024 µM. For the same compound, the IC50 turned out to be 0.0037 µM at CTX-M-15; 0.27 µM at KPC-2; 2.1 µM on OXA-1; 1.4 µM on OXA-11; 0.045 µM at OXA-48.

With `Cc1cc(C(N)=O)nn1C1=CC2CN(C1)C(=O)N2OS(=O)(=O)[O-].[Na+]` (stereo not drawn) [Example 23, sodium (7-oxo-3-(3-carboxamide-5-methyl-pyrazol-1-yl)-1,6-diazabicyclo[3.2.1]oct-3-en-6-yl) sulfate], the “MIC compounds of the invention alone” value with E. cloacae P99 [1], with E. coli 190317 [2], in the assay on K. pneumoniae 6299 [3], in the assay with K. pneumoniae BAA-1898 [4] and in the assay with P. aeruginosa CIP107051 [5] was over 32 mg/L throughout. The “MIC combination” value with E. cloacae P99 [6] worked out at 8 mg/L; with E. coli 190317 [7] it was 0.5 mg/L; with K. pneumoniae 6299 [8], 4 mg/L; in the assay on K. pneumoniae BAA-1898 [9], 4 mg/L; in the assay on P. aeruginosa CIP107051 [10] it was 16 mg/L. Also, the half-inhibitory concentration (IC50) was found to be 0.038 µM on AmpC (P99); 0.054 µM at CMY-37; 0.22 µM at AmpC (PAE); 0.76 µM on OXA-15; 0.00019 µM at TEM-1; 0.00036 µM on SHV-1. For the same compound, the IC50 on CTX-M-15 came out at 0.001 µM; at KPC-2 it was 0.0057 µM; on OXA-1, 1.5 µM; at OXA-11, 1.1 µM; at OXA-48, 0.11 µM.

For the origin of these results see patent publication US10722520B2, “Heterocyclic compounds and their use in preventing or treating bacterial infections” (MUTABILIS, priority 2016, dated 2020).
